Holding throughout (assay): Kinase panel enzymatic inhibition assay (Nanosyn)
Common to all, as to type: biochemical

For one test, the target named is T1, TYK2 (Homo sapiens, UniProt P29597).
T1 construct: purchased Nanosyn
The conditions noted are these: ATP at Km; 30-minute pre-incubation; read-out: kinase inhibition in terms of IC50, TYK2. The procedure: (§1) The disclosed compounds were tested for activity against a panel of at least 300 kinases. Kinase panel screening was conducted by Nanosyn (Santa Clara, CA 95051) using an enzymatic inhibition assay accepted as valid by those skilled in the art (e.g., the Caliper LabChip® mobility shift assay, an ADP detection assay, or time-resolved fluorescence detection technology. Compounds were screened at a concentration of 5 μM using an ATP concentration at the Km for each of the respective kinases and a 30-minute pre-incubation time-point.
(§2) In Table 1 and 2, kinase inhibition is classified by: A=95% or greater, B=90%-94%, C=80%-89%, and D=79% and less with a compound concentration of 5 JIM. In Table 3 and 4, kinase inhibition is reported in terms of IC50 values corresponding to A=less than 500 nm, B=500 nm to less than 1 μM, C=1 μM to less than 10 μM, and D=10 μM or greater using a compound concentration of 5 μM.

For another test, the target named is T2, JAK3 (Homo sapiens, UniProt P52333).
T2 construct: Nanosyn (contract laboratory that ran the panel)
T2 sequence (P52333 1-1124): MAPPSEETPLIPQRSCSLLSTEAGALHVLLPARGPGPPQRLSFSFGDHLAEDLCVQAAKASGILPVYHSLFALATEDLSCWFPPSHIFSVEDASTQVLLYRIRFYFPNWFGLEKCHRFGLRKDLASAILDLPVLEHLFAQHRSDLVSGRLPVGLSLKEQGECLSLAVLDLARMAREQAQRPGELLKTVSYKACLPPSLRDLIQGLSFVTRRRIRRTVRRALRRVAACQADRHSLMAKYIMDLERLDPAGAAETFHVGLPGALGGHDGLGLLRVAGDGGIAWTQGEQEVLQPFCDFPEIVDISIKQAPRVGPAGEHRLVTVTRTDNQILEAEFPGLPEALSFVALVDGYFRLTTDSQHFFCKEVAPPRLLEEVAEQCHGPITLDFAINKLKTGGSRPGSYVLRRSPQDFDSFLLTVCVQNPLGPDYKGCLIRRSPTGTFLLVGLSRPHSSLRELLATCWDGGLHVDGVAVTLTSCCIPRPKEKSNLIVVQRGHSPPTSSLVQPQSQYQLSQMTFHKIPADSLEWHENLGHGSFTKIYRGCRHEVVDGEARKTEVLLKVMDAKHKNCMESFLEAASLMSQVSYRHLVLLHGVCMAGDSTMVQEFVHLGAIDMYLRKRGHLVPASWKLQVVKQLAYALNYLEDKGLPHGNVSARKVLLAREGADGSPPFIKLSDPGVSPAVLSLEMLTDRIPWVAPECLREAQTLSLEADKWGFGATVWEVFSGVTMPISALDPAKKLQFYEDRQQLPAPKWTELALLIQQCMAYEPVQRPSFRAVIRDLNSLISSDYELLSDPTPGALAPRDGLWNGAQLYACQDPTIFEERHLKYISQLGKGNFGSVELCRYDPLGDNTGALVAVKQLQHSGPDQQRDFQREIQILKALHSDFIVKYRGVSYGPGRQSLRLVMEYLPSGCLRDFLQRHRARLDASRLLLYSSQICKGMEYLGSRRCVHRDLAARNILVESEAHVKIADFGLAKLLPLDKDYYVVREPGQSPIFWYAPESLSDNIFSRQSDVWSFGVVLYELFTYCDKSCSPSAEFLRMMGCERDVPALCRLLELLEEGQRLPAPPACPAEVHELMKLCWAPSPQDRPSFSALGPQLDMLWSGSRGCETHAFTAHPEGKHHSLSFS
The conditions noted are these: ATP at Km; 30-minute pre-incubation; read-out: kinase inhibition in terms of IC50, JAK3. The procedure: as §1, §2

In the next test the target is T3, PAK2 (Homo sapiens, UniProt Q13177).
T3 construct: Nanosyn (contract laboratory that ran the panel)
T3 sequence (Q13177 whole entry): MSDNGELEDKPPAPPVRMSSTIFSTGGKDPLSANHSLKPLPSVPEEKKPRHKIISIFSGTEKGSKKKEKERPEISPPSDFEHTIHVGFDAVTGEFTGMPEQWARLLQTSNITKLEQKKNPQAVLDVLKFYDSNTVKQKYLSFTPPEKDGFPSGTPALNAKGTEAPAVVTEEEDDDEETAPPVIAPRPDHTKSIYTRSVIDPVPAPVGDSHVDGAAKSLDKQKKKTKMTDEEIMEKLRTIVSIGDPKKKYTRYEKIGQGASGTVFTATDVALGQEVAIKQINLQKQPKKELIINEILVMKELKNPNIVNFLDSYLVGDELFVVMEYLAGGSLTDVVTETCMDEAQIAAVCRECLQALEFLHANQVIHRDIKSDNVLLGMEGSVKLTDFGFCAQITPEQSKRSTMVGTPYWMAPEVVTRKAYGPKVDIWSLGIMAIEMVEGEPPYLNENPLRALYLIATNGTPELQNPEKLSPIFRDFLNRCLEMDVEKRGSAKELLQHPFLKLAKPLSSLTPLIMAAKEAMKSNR
The conditions noted are these: ATP at Km; 30-minute pre-incubation; read-out: kinase inhibition in terms of IC50, PAK2. The method, then:
as §1, §2

The next test deals with T4, PAK1 (Homo sapiens, UniProt Q13153).
T4 construct: Nanosyn (contract laboratory that ran the panel)
T4 sequence (Q13153 whole entry): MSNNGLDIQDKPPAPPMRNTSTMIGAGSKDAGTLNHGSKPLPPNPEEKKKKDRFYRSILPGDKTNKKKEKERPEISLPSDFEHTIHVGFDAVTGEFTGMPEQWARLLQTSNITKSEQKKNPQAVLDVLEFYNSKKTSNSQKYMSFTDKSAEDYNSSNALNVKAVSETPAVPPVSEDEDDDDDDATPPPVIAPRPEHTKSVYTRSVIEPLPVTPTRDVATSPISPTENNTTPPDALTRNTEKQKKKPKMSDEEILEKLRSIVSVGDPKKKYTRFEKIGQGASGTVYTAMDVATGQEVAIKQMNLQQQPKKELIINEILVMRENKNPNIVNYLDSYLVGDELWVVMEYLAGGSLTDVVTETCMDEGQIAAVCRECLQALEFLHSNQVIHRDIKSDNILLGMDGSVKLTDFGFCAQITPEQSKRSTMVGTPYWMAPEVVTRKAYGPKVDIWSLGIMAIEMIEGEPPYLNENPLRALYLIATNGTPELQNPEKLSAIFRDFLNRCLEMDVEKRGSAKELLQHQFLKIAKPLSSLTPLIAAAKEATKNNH
Conditions: ATP at Km; 30-minute pre-incubation; read-out: kinase inhibition in terms of IC50, PAK1. The procedure: as §1, §2

A further test concerns the target T5, RIPK1 (Homo sapiens, UniProt Q13546).
T5 construct: purchased Nanosyn
T5 sequence (Q13546 1-671): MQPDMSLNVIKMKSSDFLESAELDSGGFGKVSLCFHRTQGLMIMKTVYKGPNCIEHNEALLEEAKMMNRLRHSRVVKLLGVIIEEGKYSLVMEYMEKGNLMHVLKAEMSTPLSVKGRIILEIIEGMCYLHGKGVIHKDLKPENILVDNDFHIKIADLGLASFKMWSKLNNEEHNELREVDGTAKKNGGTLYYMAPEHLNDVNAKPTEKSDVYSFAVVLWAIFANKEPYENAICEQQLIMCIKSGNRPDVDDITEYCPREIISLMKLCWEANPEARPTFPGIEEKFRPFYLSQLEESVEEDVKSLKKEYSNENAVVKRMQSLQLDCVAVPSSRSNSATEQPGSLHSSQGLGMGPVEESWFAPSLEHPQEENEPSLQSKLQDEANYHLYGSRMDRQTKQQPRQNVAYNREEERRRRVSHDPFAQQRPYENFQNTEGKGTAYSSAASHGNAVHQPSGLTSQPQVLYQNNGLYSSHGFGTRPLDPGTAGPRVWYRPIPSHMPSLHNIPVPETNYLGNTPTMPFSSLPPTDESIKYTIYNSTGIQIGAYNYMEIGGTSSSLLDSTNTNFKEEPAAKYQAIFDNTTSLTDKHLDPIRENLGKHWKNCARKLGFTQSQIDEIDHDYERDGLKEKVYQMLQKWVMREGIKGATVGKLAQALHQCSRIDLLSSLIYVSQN
The conditions noted are these: ATP at Km; 30-minute pre-incubation; read-out: kinase inhibition in terms of IC50, RIPK1. The procedure:
as §1, §2

For a further test, the target named is T6, RIPK2 (Homo sapiens, UniProt O43353).
T6 construct: purchased Nanosyn
T6 sequence (O43353 whole entry): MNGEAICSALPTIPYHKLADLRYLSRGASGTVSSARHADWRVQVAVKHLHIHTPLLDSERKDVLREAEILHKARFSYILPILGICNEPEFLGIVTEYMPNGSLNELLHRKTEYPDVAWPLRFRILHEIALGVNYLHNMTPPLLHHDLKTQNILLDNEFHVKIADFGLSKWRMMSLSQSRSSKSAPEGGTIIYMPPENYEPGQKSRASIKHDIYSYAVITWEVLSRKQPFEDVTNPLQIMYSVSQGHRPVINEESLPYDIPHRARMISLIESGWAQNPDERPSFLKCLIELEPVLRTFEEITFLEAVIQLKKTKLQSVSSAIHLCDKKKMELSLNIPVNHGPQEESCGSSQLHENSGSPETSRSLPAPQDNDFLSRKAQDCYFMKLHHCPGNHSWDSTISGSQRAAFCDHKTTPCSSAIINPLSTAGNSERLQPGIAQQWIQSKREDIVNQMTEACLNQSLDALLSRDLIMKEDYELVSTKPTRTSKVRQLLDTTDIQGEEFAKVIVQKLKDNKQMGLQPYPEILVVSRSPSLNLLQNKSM
Conditions: ATP at Km; 30-minute pre-incubation; read-out: kinase inhibition in terms of IC50, RIPK2. The procedure:
as §1, §2

The next test addresses T7, ITK (Homo sapiens, UniProt Q08881).
T7 construct: Nanosyn (contract laboratory that ran the panel)
T7 sequence (Q08881 1-620): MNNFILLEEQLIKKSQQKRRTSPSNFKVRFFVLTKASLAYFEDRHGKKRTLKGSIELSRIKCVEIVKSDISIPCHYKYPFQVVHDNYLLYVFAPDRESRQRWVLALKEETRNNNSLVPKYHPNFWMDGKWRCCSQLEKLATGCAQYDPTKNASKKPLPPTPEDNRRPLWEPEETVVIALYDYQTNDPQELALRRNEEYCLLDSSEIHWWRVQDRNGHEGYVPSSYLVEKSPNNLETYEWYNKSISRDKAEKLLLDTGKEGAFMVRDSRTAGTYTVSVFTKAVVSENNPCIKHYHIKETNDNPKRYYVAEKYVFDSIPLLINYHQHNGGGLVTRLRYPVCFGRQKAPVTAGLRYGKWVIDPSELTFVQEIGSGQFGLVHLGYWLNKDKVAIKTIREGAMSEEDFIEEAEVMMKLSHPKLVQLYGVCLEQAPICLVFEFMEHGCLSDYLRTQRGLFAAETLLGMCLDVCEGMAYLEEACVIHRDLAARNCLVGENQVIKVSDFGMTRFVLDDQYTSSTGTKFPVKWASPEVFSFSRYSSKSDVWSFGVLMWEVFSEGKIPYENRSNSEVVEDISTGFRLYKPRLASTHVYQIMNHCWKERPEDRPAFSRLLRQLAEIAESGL
The conditions noted are these: ATP at Km; 30-minute pre-incubation; read-out: kinase inhibition in terms of IC50, ITK. The method, then: as §1, §2

The target of another test is T8, PAK4 (Homo sapiens, UniProt O96013).
T8 construct: Nanosyn (contract laboratory that ran the panel)
T8 sequence (O96013 whole entry): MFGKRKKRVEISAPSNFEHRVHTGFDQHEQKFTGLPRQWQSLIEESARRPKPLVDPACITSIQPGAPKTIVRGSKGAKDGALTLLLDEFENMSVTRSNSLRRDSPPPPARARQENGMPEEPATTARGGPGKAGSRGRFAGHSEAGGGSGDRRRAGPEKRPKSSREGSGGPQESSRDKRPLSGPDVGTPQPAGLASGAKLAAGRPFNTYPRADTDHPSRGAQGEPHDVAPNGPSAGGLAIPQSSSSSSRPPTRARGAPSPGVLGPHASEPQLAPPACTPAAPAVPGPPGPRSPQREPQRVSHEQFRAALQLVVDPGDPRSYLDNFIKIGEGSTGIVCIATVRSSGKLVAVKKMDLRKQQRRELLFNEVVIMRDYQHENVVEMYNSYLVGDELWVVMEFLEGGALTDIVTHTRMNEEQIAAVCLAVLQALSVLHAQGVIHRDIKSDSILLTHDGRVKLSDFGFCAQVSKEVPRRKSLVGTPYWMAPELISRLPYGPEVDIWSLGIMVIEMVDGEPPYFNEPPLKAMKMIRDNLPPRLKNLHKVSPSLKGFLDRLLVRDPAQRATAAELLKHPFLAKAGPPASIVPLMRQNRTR
The conditions noted are these: ATP at Km; 30-minute pre-incubation; read-out: kinase inhibition in terms of IC50, PAK4. The method, then: as §1, §2

The target of the next test is T9, WEE1 (Homo sapiens, UniProt P30291).
T9 construct: purchased Nanosyn
T9 sequence (P30291 whole entry): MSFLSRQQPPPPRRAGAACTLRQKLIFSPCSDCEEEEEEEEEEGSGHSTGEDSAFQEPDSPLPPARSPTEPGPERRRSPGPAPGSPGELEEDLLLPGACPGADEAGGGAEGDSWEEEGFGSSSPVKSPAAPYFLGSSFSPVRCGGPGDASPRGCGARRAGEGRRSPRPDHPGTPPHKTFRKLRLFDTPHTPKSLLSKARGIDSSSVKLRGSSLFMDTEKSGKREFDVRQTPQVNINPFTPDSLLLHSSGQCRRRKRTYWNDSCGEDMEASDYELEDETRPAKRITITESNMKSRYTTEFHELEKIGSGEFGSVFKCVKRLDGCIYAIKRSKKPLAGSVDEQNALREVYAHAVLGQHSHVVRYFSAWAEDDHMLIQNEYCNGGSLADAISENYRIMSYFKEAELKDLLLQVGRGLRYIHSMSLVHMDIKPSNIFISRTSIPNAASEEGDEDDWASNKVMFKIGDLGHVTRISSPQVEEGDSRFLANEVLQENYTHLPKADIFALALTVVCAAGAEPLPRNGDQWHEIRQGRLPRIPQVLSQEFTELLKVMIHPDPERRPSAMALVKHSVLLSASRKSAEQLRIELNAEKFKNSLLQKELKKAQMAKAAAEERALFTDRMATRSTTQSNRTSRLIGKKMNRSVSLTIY
The conditions noted are these: ATP at Km; 30-minute pre-incubation; read-out: kinase inhibition in terms of IC50, WEE1. The procedure:
as §1, §2

As usually defined, the IC50 is the concentration that gives 50% inhibition.

T1 sequence (P29597 whole entry): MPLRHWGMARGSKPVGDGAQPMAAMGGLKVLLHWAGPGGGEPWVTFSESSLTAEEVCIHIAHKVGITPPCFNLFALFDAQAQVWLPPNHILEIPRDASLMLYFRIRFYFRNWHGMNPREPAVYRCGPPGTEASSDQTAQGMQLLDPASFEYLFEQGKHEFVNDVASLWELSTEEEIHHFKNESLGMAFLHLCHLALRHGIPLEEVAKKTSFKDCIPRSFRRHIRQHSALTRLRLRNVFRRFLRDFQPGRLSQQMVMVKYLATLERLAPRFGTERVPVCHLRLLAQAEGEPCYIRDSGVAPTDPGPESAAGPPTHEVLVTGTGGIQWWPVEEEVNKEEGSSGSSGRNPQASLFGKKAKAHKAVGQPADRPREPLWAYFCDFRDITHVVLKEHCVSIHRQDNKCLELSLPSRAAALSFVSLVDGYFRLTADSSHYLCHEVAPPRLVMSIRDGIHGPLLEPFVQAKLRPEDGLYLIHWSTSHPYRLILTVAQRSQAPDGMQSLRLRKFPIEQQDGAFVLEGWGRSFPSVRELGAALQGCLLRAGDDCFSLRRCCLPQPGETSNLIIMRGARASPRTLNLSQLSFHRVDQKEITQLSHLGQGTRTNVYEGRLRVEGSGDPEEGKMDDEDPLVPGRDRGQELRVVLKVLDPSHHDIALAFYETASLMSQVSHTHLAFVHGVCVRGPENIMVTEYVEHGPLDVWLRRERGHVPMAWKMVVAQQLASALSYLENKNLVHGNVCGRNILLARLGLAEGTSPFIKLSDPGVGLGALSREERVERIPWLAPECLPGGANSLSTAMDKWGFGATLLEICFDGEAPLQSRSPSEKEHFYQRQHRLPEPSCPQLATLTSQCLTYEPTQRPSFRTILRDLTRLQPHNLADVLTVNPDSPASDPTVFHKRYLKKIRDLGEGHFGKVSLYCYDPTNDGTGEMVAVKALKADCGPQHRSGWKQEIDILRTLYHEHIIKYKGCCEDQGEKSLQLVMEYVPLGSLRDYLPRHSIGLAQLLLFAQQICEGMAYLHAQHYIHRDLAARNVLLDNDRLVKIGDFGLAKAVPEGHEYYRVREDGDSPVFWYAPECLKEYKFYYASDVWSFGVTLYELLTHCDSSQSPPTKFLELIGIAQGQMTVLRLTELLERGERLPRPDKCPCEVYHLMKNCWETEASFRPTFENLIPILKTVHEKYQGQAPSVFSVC

For the molecule `Cc1cnc2[nH]cc(Cc3ccc(NC(=O)c4cc(S(C)(=O)=O)n(-c5ccc(F)cc5)n4)nc3F)c2c1` [Ex87, N-(6-fluoro-5-((5-methyl-1H-pyrrolo[2,3-b]pyridin-3-yl)methyl)pyridin-2-yl)-1-(4-fluorophenyl)-5-(methylsulfonyl)-1H-pyrazole-3-carboxamide], the concentration for half-maximal inhibition (IC50) on TYK2 and at JAK3 was ≥ 10 µM in each case.

`CNc1ncc2cc(-c3cc(NC(=O)c4ccn(-c5ccc(F)cc5)n4)c(F)cc3C)c(C)nc2n1` [Ex85, N-(2-fluoro-4-methyl-5-(7-methyl-2-(methylamino)pyrido[2,3-d]pyrimidin-6-yl)phenyl)-1-(4-fluorophenyl)-1H-pyrazole-3-carboxamide]: the IC50 at PAK2 and at PAK1 was ≥ 10 µM in each case.

With `Cc1ccc(NC(=O)c2ccn(-c3ccc(F)cc3)n2)cc1C#Cc1cnc2cccnn12` [Ex79, 1-(4-fluorophenyl)-N-(3-(imidazo[1,2-b]pyridazin-3-ylethynyl)-4-methylphenyl)-1H-pyrazole-3-carboxamide], the IC50 at RIPK1 and on RIPK2 was < 0.5 µM throughout.

With `Cc1ccc(NC(=O)c2ccn(-c3ccc(F)cc3)n2)cc1Nc1nccc(-c2cccnc2)n1` [Ex75, 1-(4-fluorophenyl)-N-(4-methyl-3-((4-(pyridin-3-yl)pyrimidin-2-yl)amino)phenyl)-1H-pyrazole-3-carboxamide], at ITK, the concentration for half-maximal inhibition (IC50) was ≥ 10 µM.

On to `CNc1ncc2cc(-c3cc(NC(=O)c4cc(S(C)(=O)=O)n(-c5ccc(F)cc5)n4)ccc3Cl)c(=O)n(C)c2n1` [Ex76, N-(4-chloro-3-(8-methyl-2-(methylamino)-7-oxo-7,8-dihydropyrido[2,3-d]pyrimidin-6-yl)phenyl)-1-(4-fluorophenyl)-5-(methylsulfonyl)-1H-pyrazole-3-carboxamide], for which the 50% inhibitory concentration (IC50) on PAK2 is ≥ 10 µM; at PAK4 it was 1 to 10 µM; at WEE1 it was ≥ 10 µM; at PAK1, ≥ 10 µM.

(Values after patent US20240400577A1, “MODULATORS OF PROTEIN KINASES” (VIBLIOME THERAPEUTICS, LLC, priority 2021, published 2024).)
